Results on eight compounds are retold here after PMC3192848 (PLoS Pathogens, 2011).

The target of the first assay is T1, EtMIC3-MAR1b (thioredoxin-His fusion, microarray) (Eimeria tenella, UniProt B6VCV4).
T1 construct: gene mic3
The format is binding. The note with it: lipid-linked probe immobilised at 5 fmol/spot; 40 µg/ml protein precomplexed with anti-His antibodies; ambient temperature.
With GT1b [compound 109], the “Fluorescence signal intensities / EtMIC3-MAR1b” value is given as 8,121 fluorescence units.

As to “NeuAcα-3Galβ-3GlcNAcβ-3Galβ-4Glcß-C30 [compound 38]”, the “Fluorescence signal intensities / EtMIC3-MAR1b” value is given as 5,423 fluorescence units.

As for “NeuAcα-6Galβ-4GlcNAcβ-3Galβ-4Glc-DH [compound 79]”, the “Fluorescence signal intensities / EtMIC3-MAR1b” value is reported as 5,570 fluorescence units.

The target in another assay is T2, TgMIC1-MARR (Toxoplasma gondii, UniProt O00834).
T2 construct: gene MIC1
T2 sequence (O00834 17-262): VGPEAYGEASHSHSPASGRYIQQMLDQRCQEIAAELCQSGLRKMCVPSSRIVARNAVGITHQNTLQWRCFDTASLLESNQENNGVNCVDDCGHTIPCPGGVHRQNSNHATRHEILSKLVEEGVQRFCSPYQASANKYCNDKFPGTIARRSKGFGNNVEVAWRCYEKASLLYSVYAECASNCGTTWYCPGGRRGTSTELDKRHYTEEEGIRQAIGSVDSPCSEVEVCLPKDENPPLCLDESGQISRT
It is filed as binding. The conditions noted are these: lipid-linked probe immobilised at 5 fmol/spot; 40 µg/ml protein precomplexed with anti-His antibodies; ambient temperature.
Consider NeuAcα-3Galß-4Glcß-Cer [compound 59], for which the “Fluorescence signal intensities / TgMIC1-MARR” value was 4,327 fluorescence units.

With “NeuAcα-3Galβ-3GlcNAcβ-3Galβ-4Glcß-C30 [compound 38]”, the “Fluorescence signal intensities / TgMIC1-MARR” value is 11,580 fluorescence units.

Turning to NeuGcα-3Galß-4Glcß-Cer [compound 60], the “Fluorescence signal intensities / TgMIC1-MARR” value is given as 12,526 fluorescence units.

On to “NeuGcα-3Galβ-3GlcNAcβ-3Galβ-4Glcß-C30 [compound 39]”, for which the “Fluorescence signal intensities / TgMIC1-MARR” value is on record as 11,075 fluorescence units.

For the compound NeuGcα-6GalNAc-AO [compound 88], the “Fluorescence signal intensities / TgMIC1-MARR” value was 13,982 fluorescence units.

The target in another assay is T3, EtMIC3-MAR1b (NMR construct) (Eimeria tenella, UniProt B6VCV4).
T3 construct: gene mic3
It is filed as binding. The note with it: phosphate buffer pH 5.5; sialic acid contacts L175, Y178 and HLT motif.
With `CC(=O)N[C@H]1[C@H]([C@H](O)[C@H](O)CO)O[C@@](O[C@H]2[C@@H](O)[C@@H](CO)O[C@@H](O[C@H]3[C@H](O)[C@@H](NC(C)=O)C(O)O[C@@H]3CO)[C@@H]2O)(C(=O)O)C[C@@H]1O` (stereo partly drawn) [Siaα2–3Galβ1–4GlcNAc], the “isotope-filtered NMR NOESY; HADDOCK structure from 9 intermolecular NOEs” value was “intermolecular NOEs”.
